Structures are written as SMILES. pEC50: −log10 of the molar value. Some results are limits rather than exact numbers.

For the assay, the system named is voltage gated K+ channels. Briefly: test assay chosen for cells expressing voltage gated K+ channels (opening of voltage-gated potassium channels). The note with it: relative potency. The class given is cell-based. As to the method:
Utilizing screening assays such as described above, compounds of the invention were tested for their ability to open voltage-gated potassium channels. The results of these assays are set forth in Table 1 in which the data are presented in terms of relative potency of the compounds tested to one another.
This example illustrates screening protocols for evaluating putative potassium channel agonists for the ability to open voltage-gated potassium channels.
NG108-15 cells, a mouse neuroblastoma, rat glioma hybrid cell line, functionally express M-currents (Robbins et al., J. Physiol. 451: 159–85 (1992). NG108-15 M-currents are likely comprised, at least in part, of KCNQ2, KCNQ3 and KCNQ5, since these genes are reportedly robustly expressed in differentiated NG108-15 cells (Selyanko et al., J. Neurosci. 19(18): 7742–56 (1999); Schroeder et al., J. Biol. Chem. 275(31): 24089–95 (2000)) and KCNQ3 dominant- negative constructs reduce M-current density in these cells (Selyanko et al., J. Neurosci. 22(5): RC212 (2002).
NG108–15 are maintained in DMEM (high glucose) supplemented with 10% fetal bovine serum, 0.05 mM pyridoxine, 0.1 mM hypoxanthine, 400 nM aminopterin, […] thymidine, 50 μgml^−1 gentamycin and 10 mM HEPES, in an incubator at 37° C. with a humidified atmosphere of 5% CO2. Cells are plated in 96 well plates and are differentiated by addition of 10 μM PGE1 and 50 μM isomethylbutylxanthine to the growth media prior to study.
Differentiated NG108–15 cells are loaded with voltage-sensitive dye by incubation in Earls Balanced Salt Solution (EBSS) containing […] DiBAC for 1 h. Following loading, drug solution containing […] DiBAC is added to each well. Changes in fluorescence are measured every 30 s for 25 min. The maximum change in fluorescence is measured and can be expressed as a percentage of the maximum response obtained in the presence of a positive control agent.
Alternatively, cells expressing voltage-gated K^+ channels, such as KCNQ2-like channels can be loaded with ^86Rb^+ by culture in media containing ^86RbCl. Following loading, culture media is removed and the cells are washed in EBSS to remove residual traces of ^86Rb^+. Cells are preincubated with drug (0.01–30 μM in EBSS) and then ^86Rb^+ efflux is stimulated by exposing cells to EBSS solution supplemented with a sub-maximal concentration of KCl (generally 7–20 mM) in the continued presence of drug. After a suitable efflux period, the EBSS/KCl solution is removed from the cells and the ^86Rb^+ content can be determined by Cherenkov counting (Wallac Trilux). Cells are then lysed with a SDS solution and the ^86Rb^+ content of the lysate can be determined. Percent ^86Rb^+ efflux is calculated according to: (^86Rb^+ content in EBSS/(^86Rb^+ content in EBSS+^86Rb^+ content of the lysate))*100
Efflux is normalized to the maximal ^86Rb^+ efflux (i.e., that which can be induced by a high concentration of KCl, generally 30–135 mM).
As a reminder, the pEC50 is the negative decadic logarithm of the EC50, by convention in mol/L. Low values mean a high EC50, high ones a low EC50. Regarding `O=C(Nc1cnc(Cl)nc1)c1cccc(C(F)(F)F)c1` [Compound 3, N-(2-chloro-pyrimidin-5-yl)-3-trifluoromethyl-benzamide], the pEC50 is 5.00 to 6.00. Regarding `O=C(Nc1cnc(Cl)nc1)c1ccc(F)c(F)c1` [Compound 4, N-(2-Chloro-pyrimidin-5-yl)-3,4-difluoro-benzamide], the pEC50 is 6.00 to 6.30.

As to `O=C(Nc1cnc(Cl)nc1)c1cccc(Cl)c1` [Compound 5, 3-Chloro-N-(2-chloro-pyrimidin-5-yl)-benzamide], the negative-log EC50 (pEC50) was 5.00 to 6.00. Then `Cc1ncc(NC(=O)c2ccc(F)c(F)c2)cn1` [Compound 8, 3,4-difluoro-N-(2-methyl-pyrimidin-5-yl)-benzamide], with 5.00 to 6.00; and `O=C(Nc1cnc(Cl)nc1)c1cccc(F)c1` [Compound 9, N-(2-chloro-pyrimidin-5-yl)-3-fluoro-benzamide], with 5.00 to 6.00. Then `O=C(Nc1cnc(Cl)nc1)c1ccc(Cl)s1` [Compound 20, 5-Chloro-thiophene-2-carboxylic acid (2-chloro-pyrimidin-5-yl)-amide], with 6.00 to 6.30.

The compound `O=C(Nc1cnc(Cl)nc1)c1ccc(Cl)c(F)c1` [Compound 44, 4-Chloro-N-(2-chloro-pyrimidin-5-yl)-3-fluoro-benzamide] gave a pEC50 above 6.30. With `Cc1ccc(C(=O)Nc2cnc(Cl)nc2)cc1F` [Compound 90, N-(2-Chloro-pyrimidin-5-yl)-3-fluoro-4-methyl-benzamide], the pEC50 is 6.00 to 6.30. On to `CC(C)S(=O)(=O)c1ccc(C(=O)Nc2cnc(Cl)nc2)cc1F` [Compound 91, N-(5-amino-2-chloro-pyrimidine)-3-fluoro-4-(propane-2-sulfonyl)-benzamide], for which the pEC50 is 5.00 to 6.00.

Source of the values: patent publication US7205307B2, “Pyrimidines as novel openers of potassium ion channels” (Icagen, Inc., priority 2002, dated 2007).
